# Residues, ends and D or L forms follow the SMILES beside them.
# Experiments:
# Format in all cases: cell-based
# HIV-1IIIB (X4 virus) = test system: HIV-1IIIB (X4 virus)
# Method: To determine whether a peptide binds with the target cells in order to execute its anti-HIV-1 activity, cell wash and nonwash assays were performed as previously described. Briefly, 2 × 10^4 MT-2 cells were incubated with a peptide at 4 °C for 30 min, followed by washes of the pretreated cells to remove the unbound peptide (control: without washes) before addition of HIV-1IIIB (100 × TCID50). After culture at 37 °C overnight, the supernatant was replaced by fresh RPMI-1640 medium containing 10% FBS. The inhibitory activity of the cell-bound peptide in the wash group and free peptide in the nonwash group was determined as described above.
# [1] = test system: HIV-1 NL4-3 (D36G) V38A, N42D; conditions: T20-resistant (D36G) V38A, p24 ELISA, mean ± SD of three independent experiments
# Method: (§1) For each well of a 96-well plate, 50 μL of a peptide were mixed with 50 μL of 100 × TCID50 (50% tissue culture infective doses) of HIV-1 live virus and incubated at 37 °C for 30 min. Afterwards, 2 × 10^4 MT-2 (for X4 virus) or CEMx174 5.25 M7 cells (for R5 virus) were added. After overnight culture, the supernatant was replaced with fresh RPMI-1640 medium containing 10% fetal bovine serum (FBS). After further culture at 37 °C for three days, 50 μL of the culture medium were collected and mixed with equal volume of 5% (v/v) Triton X-100. The p24 antigen, which represents HIV-1 quantity, was detected by ELISA. Briefly, the collected mixtures were added to a plate coated with anti-HIV Immune Globulin (HIVIG) from the NIH AIDS Reagent Program. Anti-p24 mAb 183, rabbit anti-mouse IgG-HRP (Dako, Glostrup, Denmark) and substrate 3,3,5,5-TMB (Sigma-Aldrich, New York, NY) were added and washed away sequentially. The absorbance at 450 nm (A450) was determined by a Multi-Detection Microplate Reader (Ultra 384, Tecan, Tokyo, Japan). IC50s were calculated using Calcusyn software (Biosoft, Ferguson, MO), and the lines of best fit were drawn using GraphPad Prism 8 software (La Jolla, CA).
# HIV-1 LAI K90E/N126K = conditions: T2635-resistant K90E/N126K; p24 ELISA; mean ± SD of three independent experiments
# Method: (§2) Inhibitory activities of peptides on infection by HIV-1 X4 strain IIIB, R5 strain Bal, and T20-, T2635-, HP23-resistant strains were determined as previously described [42]. For each well of a 96-well plate, 50 μL of a peptide were mixed with 50 μL of 100 × TCID50 (50% tissue culture infective doses) of HIV-1 live virus and incubated at 37 °C for 30 min. Afterwards, 2 × 10^4 MT-2 (for X4 virus) or CEMx174 5.25 M7 cells (for R5 virus) were added. After overnight culture, the supernatant was replaced with fresh RPMI-1640 medium containing 10% fetal bovine serum (FBS). After further culture at 37 °C for three days, 50 μL of the culture medium were collected and mixed with equal volume of 5% (v/v) Triton X-100. The p24 antigen, which represents HIV-1 quantity, was detected by ELISA. Briefly, the collected mixtures were added to a plate coated with anti-HIV Immune Globulin (HIVIG) from the NIH AIDS Reagent Program. Anti-p24 mAb 183, rabbit anti-mouse IgG-HRP (Dako, Glostrup, Denmark) and substrate 3,3,5,5-TMB (Sigma-Aldrich, New York, NY) were added and washed away sequentially. The absorbance at 450 nm (A450) was determined by a Multi-Detection Microplate Reader (Ultra 384, Tecan, Tokyo, Japan). IC50s were calculated using Calcusyn software (Biosoft, Ferguson, MO), and the lines of best fit were drawn using GraphPad Prism 8 software (La Jolla, CA).
# HIV-1 NL4-3 (WT) = conditions: p24 ELISA, mean ± SD of three independent experiments
# Method: as §2
# HIV-1 LAI K154Q = conditions: T2635-resistant K154Q; p24 ELISA; mean ± SD of three independent experiments
# Method: as §2
# HIV-1 LAI K90E = conditions: T2635-resistant K90E; p24 ELISA; mean ± SD of three independent experiments
# Method: as §2
# HIV-1 NL4-3 E49K/N126K = conditions: HP23-resistant E49K/N126K; p24 ELISA; mean ± SD of three independent experiments
# Method: as §2
# HIV-1 NL4-3 E49K = conditions: HP23-resistant E49K; p24 ELISA; mean ± SD of three independent experiments
# Method: as §2
# [2] = test system: HIV-1 NL4-3 (D36G) V38E, N42S; conditions: T20-resistant (D36G) V38E, p24 ELISA, mean ± SD of three independent experiments
# Method: as §2
# HIV-1 LAI Q79E/N126K = conditions: T2635-resistant Q79E/N126K; p24 ELISA; mean ± SD of three independent experiments
# Method: as §2
# [3] = test system: HIV-1 NL4-3 L34S/D36G/E49K/E136G; conditions: HP23-resistant L34S/D36G/E49K/E136G; p24 ELISA; mean ± SD of three independent experiments
# Method: as §2
# HIV-1 NL4-3 (D36G) V38A = conditions: T20-resistant (D36G) V38A; p24 ELISA; mean ± SD of three independent experiments
# Method: as §1
# [4] = test system: cell-cell fusion between H9/IIIB cells and MT-2 cells; assay: HIV-1-mediated cell-cell fusion (dye transfer assay); conditions: Calcein AM dye transfer; peptide 37 °C 30 min, then MT-2 cells 2 h; read-out: IC50 against cell-cell fusion between H9/IIIB cells and MT-2 cells
# Method: A dye transfer assay was performed to detect HIV-1 Env-mediated cell-cell fusion as described previously. Briefly, for each well of a 96-well plate, 2 × 10^3 H9/IIIB cells labeled with the fluorescent reagent Calcein AM (Molecular Probes, Inc., Eugene, Oregon) were incubated with a CHR-peptide at 37 °C for 30 min. Afterwards, 10^4 MT-2 cells were added and incubated at 37 °C for 2 h. The fused and unfused Calcein-labeled H9/IIIB cells were counted under an inverted fluorescence microscope (Zeiss, Oberkochen, Germany). The IC50 values were calculated by using the Calcusyn computer program (Biosoft, Ferguson, MO).
# HIV-1 LAI A6V = conditions: T2635-resistant A6V; p24 ELISA; mean ± SD of three independent experiments
# Method: as §2
# HIV-1 NL4-3 D36G (WT) = conditions: p24 ELISA, mean ± SD of three independent experiments
# Method: as §2
# [5] = test system: HIV-1 NL4-3 (D36G) V38A, N42T; conditions: T20-resistant (D36G) V38A, p24 ELISA, mean ± SD of three independent experiments
# Method: as §2
# [6] = test system: HIV-1 NL4-3 D36G/E49K/N126K; conditions: HP23-resistant D36G/E49K/N126K; p24 ELISA; mean ± SD of three independent experiments
# Method: as §2
# HIV-1 LAI (WT) = conditions: p24 ELISA, mean ± SD of three independent experiments
# [7] = test system: HIV-1 NL4-3 (D36G) N42T, N43K; conditions: T20-resistant (D36G) N42T, p24 ELISA, mean ± SD of three independent experiments
# Method: as §2
# HIV-1 LAI Q66R = conditions: T2635-resistant Q66R; p24 ELISA; mean ± SD of three independent experiments
# Method: as §2
smiles,measurement,setting,value
CC[C@H](C)[C@H](NC(=O)[C@H](CCC(N)=O)NC(=O)[C@H](CCC(N)=O)NC(=O)[C@H](CC(N)=O)NC(=O)[C@H](CCC(N)=O)NC(=O)[C@H](CO)NC(=O)[C@H](CCCCN)NC(=O)[C@H](CCCCN)NC(=O)[C@H](CC(C)C)NC(=O)[C@@H](NC(=O)[C@H](CCC(=O)O)NC(=O)[C@H](CCC(=O)O)NC(=O)[C@@H](NC(=O)[C@H](CCCCN)NC(=O)[C@H](CCCCN)NC(=O)[C@@H](NC(=O)[C@H](Cc1ccc(O)cc1)NC(=O)[C@H](CCC(=O)O)NC(=O)[C@H](CCC(=O)O)NC(=O)[C@@H](NC(=O)[C@H](CCCCN)NC(=O)[C@H](CCCCN)NC(=O)[C@H](CCC(=O)O)NC(=O)[C@H](Cc1c[nH]c2ccccc12)NC(=O)[C@H](CCC(=O)O)NC(=O)[C@H](CCC(=O)O)NC(=O)[C@H](Cc1c[nH]c2ccccc12)NC(=O)[C@@H](NC(=O)[C@H](CCSC)NC(=O)[C@@H](N)CCC(=O)O)[C@@H](C)O)[C@@H](C)CC)[C@@H](C)O)[C@@H](C)CC)[C@@H](C)CC)C(=O)N[C@@H](CC(=O)O)C(=O)N[C@@H](CC(C)C)C(=O)O [HP23-E6-IDL] (H-EMTWEEWEKKIEEYTKKIEEILKKSQNQQIDL-OH),IC50,HIV-1IIIB (X4 virus),2.4 nM
same,IC50,[1],1.54 ± 0.253 nM
same,IC50,HIV-1 LAI K90E/N126K,0.842 ± 0.066 nM
same,IC50,HIV-1 NL4-3 (WT),0.699 ± 0.025 nM
same,IC50,HIV-1 LAI K154Q,1.25 ± 0.249 nM
same,IC50,HIV-1 LAI K90E,1.42 ± 0.242 nM
same,IC50,HIV-1 NL4-3 E49K/N126K,2.56 ± 0.318 nM
same,IC50,HIV-1 NL4-3 E49K,2.04 ± 0.126 nM
same,IC50,[2],0.748 ± 0.012 nM
same,IC50,HIV-1 LAI Q79E/N126K,1.31 ± 0.059 nM
same,IC50,[3],4.94 ± 1.1 nM
same,IC50,HIV-1 NL4-3 (D36G) V38A,0.647 ± 0.024 nM
same,IC50,[4],1.14 nM
same,IC50,HIV-1 LAI A6V,0.349 ± 0.019 nM
same,IC50,HIV-1 NL4-3 D36G (WT),0.912 ± 0.029 nM
same,IC50,[5],0.838 ± 0.031 nM
same,IC50,[6],3.14 ± 0.4 nM
same,IC50,HIV-1 LAI (WT),0.932 ± 0.059 nM
same,IC50,[7],0.941 ± 0.019 nM
same,IC50,HIV-1 LAI Q66R,0.496 ± 0.168 nM

# From paper PMC6470885 (Molecules, 2019)
